Measurements as given in patent US5948800A, “Preventive or therapeutic drug for Alzheimer's disease” (A. Nattermann & Cie. GmbH, priority 1996, dated 1999).
Entries after “also recorded” stand apart in the source; their conditions may differ.

Key:
PC12 cells [1] = experiment: Generation of hydrogen peroxide in PC12 cells to which SNAP was added (DCFH, FACS); format: cell-based, rat; conditions: for Amounts of generated H2O2 (% log fluorescence of control): n = 3
Protocol: PC12 cells (derived from rats, chromaffin tumor) were cultured and subcultured in a 100 mm dish (made of Corning) coated with polylysine and containing a DMEM medium supplemented with 10% FCS and 5% horse serum (product of Sigma). Briefly, PC12 cells (1×10^6 cells/dish) were seeded in a 100 mm dish coated with polylysine. In order to induce differentiation of the PC12 cells, the cells were grown for 7 days in a DMEM medium containing 5% FCS, 50 ng/ml NGF, and 1% horse serum. The PC12 cells were then peeled off through pipetting and suspended in a suitable medium to prepare a cell suspension. The cell suspension was seeded into each well of a […], polylysine-coated 96-well dish (1×10^4 cells/well). After adhesion of the cells was confirmed, the following procedure was performed.
The thus-adhered PC12 cells were placed in a DMEM medium. To the cells were added 10 μM of SNAP and 2.5 μM of compound A. For control groups, only SNAP was added. Each sample was incubated for 3 hours. Thereafter, a solution of DCFH-DA (Molecular Probes, Inc.) in DMSO (1 mg/413 μl) which had been prepared in advance was added to each PC12-containing sample so that a final concentration of 5 μM was obtained, and the samples were then incubated for 30 minutes. The cells were removed using trypsin-EDTA, and recovered via centrifugation (1,000 rpm×5 min.). The recovered cells were suspended in 50 μl of PBS(-) while being cooled with ice. The amount of intracellular hydrogen peroxide was determined using a flow cytometer; The cell suspension was subjected to FACS (fluorescence-activated cell sorting), and the amount of the fluorescent substance, […], which had been oxidized by peroxides was measured.

[2] = test system: glutathione peroxidase-like activities; conditions: stated in description of control compound; cited from earlier work
PC12 cells [3] = experiment: Viability of PC12 cells in the presence of Aβ (MTT method); format: cell-based, rat; conditions: for Suppression of neuron death caused by Aβ (in words): Aβ 10 μM, compound 0.1, 1 or 2.5 μM, PC12; for viability at 0.1 µM / viability at 1 µM / viability at 2.5 µM: Rattus norvegicus, PC-12, 48 h, read-out: Viability of cells (% of control)
Protocol: PC12 cells (derived from rats, chromaffin tumor) were cultured and subcultured in a 100 mm dish (made of Corning) coated with polylysine and containing a DMEM medium supplemented with 10% FCS and 5% horse serum (product of Sigma). Briefly, PC12 cells (1×10^6 cells/dish) were seeded in a 100 mm dish coated with polylysine. In order to induce differentiation of the PC12 cells, the cells were grown for 7 days in a DMEM medium containing 5% FCS, 50 ng/ml NGF, and 1% horse serum. The PC12 cells were then peeled off through pipetting and suspended in a suitable medium to prepare a cell suspension. The cell suspension was seeded into each well of a polylysine-coated 96-well dish (1×10^4 cells/well). Subsequently, Aβ (Bachem Feinchmikalien AG) was added so that a final concentration of 10 μM was achieved. Compound A was also added so that a final concentration of 0.1, 1.0, or 2.5 μM was achieved. […] The cells were cultured for 48 hours from the addition of compound A or compound B.
An MTT reagent (3-(4,5-dimethylthiazole-2-yl)-2,5-diphenyl tetrazolium bromide) was added to the thus-treated cells, incubation was performed for 4 hours, and the cells were lysed. The subsequent procedure was performed using a so-called MTT method, which employs colorimetry based on a reduction reaction of the reagent, to thereby obtain the viability of the cells in the suspension (Behl, C. et al., Cell, 77: 817-827, 1994). [drawing 1]

LD50 in rats = conditions: rat, in vivo
Source text: (§1) Toxicity of compound A has been studied by obtaining LD50 values in mice and rats.

mice or rats = experiment: Adverse side effects at high dose in mice or rats; format: in vivo
LD50 in mice = conditions: mouse, in vivo, oral
Source text: as §1

SMILES	Amounts of generated H2O2 (% log fluorescence of control) (PC12 cells [1]; SNAP 10 μM alone)	Increase of generation of hydrogen peroxide over the level without SNAP (PC12 cells [1]; SNAP 10 μM, 3 hours)	Glutathione peroxidase-like activities [2]	Suppression of neuron death caused by Aβ (in words) (PC12 cells [3])	viability at 0.1 µM (PC12 cells [3]) [%]	viability at 1 µM (PC12 cells [3]) [%]	viability at 2.5 µM (PC12 cells [3]) [%]	LD50 (LD50 in rats; ip, intraperitoneal) [mg/kg]	LD50 (LD50 in rats; oral) [mg/kg]	Suppression of generation of hydrogen peroxide (in words) (PC12 cells [1]; SNAP 10 μM, compound A 2.5 μM, P≤0.0015)	Amounts of generated H2O2 (% log fluorescence of control) (PC12 cells [1]; SNAP 10 μM, compound A 2.5 μM, P ≤ 0.0015 vs SNAP)	Suppression of generation of hydrogen peroxide induced by Aβ (in words) (PC12 cells [1]; concluding statement)	Adverse side effects (mice or rats)	LD50 (LD50 in mice) [mg/kg]
CC(=O)NC(C(=O)O)C(C)(C)SN=O (racemic) [SNAP, Snitroso-N-acetyl-DL-penicillamine, reference compound]	135.8 ± 5.25 % log fluorescence of control	1.3-1.4 times	–	–	–	–	–	–	–	–	–	–	–	–
O=c1c2ccccc2sn1-c1ccccc1 [B, 2-phenyl-1,2-benzothiazol-3(2H)-one, reference compound]	–	–	having no glutathione peroxidase-like activities	the death rate could not be suppressed	14 ± 4.5	13 ± 1	10 ± 5	–	–	–	–	–	–	–
O=c1c2ccccc2[se]n1-c1ccccc1 [Compound A, 2-phenyl-1,2-benzisoselenazol-3(2H)-one]	–	–	–	neuron death suppressed significantly in all cases	45 ± 2.1	59 ± 14.5	66 ± 4.5	580	≥ 6810	significantly suppressed; also recorded: satisfactorily suppressed	45.7 ± 6.03 % log fluorescence of control	significantly suppresses generation of hydrogen peroxide	no problematic adverse side effects were observed	≥ 6810
